Assay results: patent publication US20140315972A1, “RS)-2-(2-oxo-4-phenylpyrrolidin-1-yl)acetamide compound having modulatory activity with a commensurate effect, pharmaceutical substance (variants) and its application, composition (variants) thereof” (priority 2011, published 2014)
Read-outs that look alike come from different tables or passages of the source.

How the values were obtained:
mice [1] = details: mice; product of SU No 797219; cited from earlier work
rats = assay: Acute toxicity, single intragastric administration in immature rats; type: in vivo; details: single intragastric 800 mg/kg
Procedure: (§1) Tables 2, 2.1 and 2.2 present the results of acute toxicity studies of the Compounds with active substance content in at least white outbred male mice (body weight 18-24 g) and white outbred rats 30-35 days of age, of both sexes with a single dose. Calculation of toxic doses was made using the Wilcoxon and Litchfield method. Observations were made over 24 hours and 14 days after a single dose.
(§2) LD50 in rat pups after intragastric administration was not found. Intragastric administration to rat pups of doses of more than 1000 mg/kg is technically impossible due to the small volume of the stomach (Table 2.2).

mice [2] = assay: Acute toxicity, single intraperitoneal injection in male mice; type: in vivo; details: male mice 18-24 g; single i.p.
Procedure: as §1, §2

mice [3] = assay: Cross maze exploratory behavior, HEF and LEF mice; type: in vivo; details: i.p. once a day 5 days, Compounds 1 and 4 100 mg/kg, Piracetam 200 mg/kg
rabbits = assay: Transcallosal stimulation induced potential (TSIP); type: in vivo; details: for effect on TSIP components (in words): 25-300 mg/kg
[4] = Acute toxicity, single intraperitoneal injection in male mice; type: in vivo; details: male, white outbred, mouse, in vivo, ip, male mice 18-24 g; single i.p.
Procedure: as §1, §2

[5] = Piracetam 300-500, Pyritinol 50-150, Phenotropil 25-300 mg/kg

## NC(=O)CN1CC(c2ccccc2)CC1=O (stereo not drawn) [N-carbamoylmethyl-4-phenyl-2-pyrrolidone, reference compound]
Mice [1]
  LD50: 831 mg/kg

## NC(=O)CN1CC(c2ccccc2)CC1=O (racemic) [Compound 3, (RS)-2-(2-oxo-4-phenylpyrrolidin-1-yl)acetamide]
rats; rats 30-35 days
  Dead/total number: 0/10
rats
  % of dead rat pups: 0%
Mice [2]
  LD50: 1050 (984.6-1115.3) mg/kg

## NC(=O)CN1CC(c2ccccc2)CC1=O (racemic) [Compound 4, (RS)-2-(2-oxo-4-phenylpyrrolidin-1-yl)acetamide]
Mice [3]; HEF mice
  Kt (trigger transmission coefficient): 3.9 ± 0.45
  Number of compartment explorations: 6.5 ± 0.7 //
  Number of surveillances: 1.6 ± 0.2
Mice [3]; LEF mice
  Kt (trigger transmission coefficient): 3.9 ± 0.4
  Number of compartment explorations: 7.0 ± 0.6 //
  Number of surveillances: 1.8 ± 0.2
Mice [3]; population as a whole
  Kt (trigger transmission coefficient): 3.9 ± 0.45
  Number of compartment explorations: 6.7 ± 0.7 //
  Number of surveillances: 1.7 ± 0.2
rabbits
  effect on TSIP components (in words): no significant difference from the saline treated control
Mice [2]
  LD50: 904 mg/kg

## NC(=O)CN1CC(c2ccccc2)CC1=O (racemic) [Compound 2, (RS)-2-(2-oxo-4-phenylpyrrolidin-1-yl)acetamide]
rabbits
  effect on TSIP components (in words): less pronounced than that of Compounds 1 and 3
rabbits; [5]
  TSIP P1 + N1 amplitude: ± (biphasic effect, less than 50% but not less than 20%)
  TSIP component N1 amplitude: ± (biphasic effect, less than 50% but not less than 20%)
  TSIP component P1 amplitude: ± (biphasic effect, less than 50% but not less than 20%)
  TSIP component P2 amplitude: ± (biphasic effect, less than 50% but not less than 20%)
[4]
  LD50 at 14 days: 1000 mg/kg
